Results taken from patent US20110229482A1, “Method of inhibiting infection by HCV, other flaviviridae viruses, and any other virus that complexes to low density lipoprotein or to very low density lipoprotein in blood by preventing viral entry into a cell” (priority 2000, published 2011).
Where two headings read alike, the source gives them in different places.

What was measured:
[1] = system: HCV; type: cell-based, hepatitis C virus; parameters: key to Endocytosis of 1 × 10^6 gE HCV from each fraction intensity of staining: ++: Moderately positive; +: Weakly positive
[2] = system: LDL receptor; experiment: LDL receptor expression in liver sections of hLDLR Tg mice, fluorescence staining; type: in vivo; conditions: Tg mouse pretreated with 0.5 mg, then inoculated with HCV
[3] = system: HCV; type: in vivo, mouse
[4] = target: T1, LDL receptor (Homo sapiens, UniProt P01130); experiment: DiI-LDL endocytosis (uptake) by cultured cells, flow cytometry / fluorescence microscopy; type: cell-based; conditions: for Mean fluorescence: DiI-LDL treatment
T1 construct: endogenous in cells; host or cells: G4 B-lymphocyte line (human-mouse heterohybridoma fused with patient B cells), HepG2 hepatoma cells
Protocol: LDL Receptor Assays: Cells were cultured in Roswell Park Memorial Institute (RPMI) medium supplemented either with 10% BVDV-free bovine calf serum or with RPMI medium supplemented with 10% lipoprotein-deficient BVDV-free medium to upregulate expression of the LDL receptor. The cells were then washed twice with phosphate-buffered saline (PBS), pH 7.2. Cytospin preparations were made, fixed with acetone, blocked with 5% normal mouse serum, and the LDL receptor visualized by incubating the slides with 5 μg/ml purified IgG 2a monoclonal anti-LDL receptor antibody followed by a 1:50 dilution of fluorescein (FITC)-labeled goat anti-mouse [F(ab)′2] second antibody (Jackson Immunoresearch, West Grove, Pa.).
The cells were washed twice with cold PBS and fixed with 1% buffered paraformaldehyde, and cytospin preparations were made for fluorescent microscopic studies or cells in suspension were analyzed by flow cytometry. Flow cytometric analysis was performed using the Epic XL-MCL cytometer (Coulter Corp., Miami, Fla.) using a 575 BP filter. Nonspecific binding of DiI-LDL was determined using DiI-LDL treated with cyclohexanedione and was subtracted from the DiI-LDL binding to give specific DiI-LDL binding to cultured cells.

[5] = density gradient fractions of HCV serum, ISH

T1 sequence (P01130 22-860): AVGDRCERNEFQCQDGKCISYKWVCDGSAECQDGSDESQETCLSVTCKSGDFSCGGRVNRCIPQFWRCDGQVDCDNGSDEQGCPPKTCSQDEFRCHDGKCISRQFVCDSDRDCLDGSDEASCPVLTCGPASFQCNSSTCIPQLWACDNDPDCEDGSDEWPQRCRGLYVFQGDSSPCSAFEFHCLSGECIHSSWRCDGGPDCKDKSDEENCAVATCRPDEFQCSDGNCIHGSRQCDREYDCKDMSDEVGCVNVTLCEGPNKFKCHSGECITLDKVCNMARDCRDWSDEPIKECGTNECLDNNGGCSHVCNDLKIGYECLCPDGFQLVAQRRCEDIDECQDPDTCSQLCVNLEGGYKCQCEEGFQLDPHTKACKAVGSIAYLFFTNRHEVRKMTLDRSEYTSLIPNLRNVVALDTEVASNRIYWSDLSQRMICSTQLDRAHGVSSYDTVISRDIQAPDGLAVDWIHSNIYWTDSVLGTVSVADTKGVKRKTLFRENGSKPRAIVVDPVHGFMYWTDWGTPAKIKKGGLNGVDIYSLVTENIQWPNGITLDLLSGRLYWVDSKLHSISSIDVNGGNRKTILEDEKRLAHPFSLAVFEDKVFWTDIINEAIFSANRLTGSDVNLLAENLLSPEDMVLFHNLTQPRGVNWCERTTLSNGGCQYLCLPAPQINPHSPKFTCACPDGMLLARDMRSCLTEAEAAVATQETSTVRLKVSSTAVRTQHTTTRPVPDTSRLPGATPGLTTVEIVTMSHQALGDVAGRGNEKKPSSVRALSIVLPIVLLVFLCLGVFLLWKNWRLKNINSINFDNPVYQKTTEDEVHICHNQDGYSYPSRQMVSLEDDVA

## soluble LDL receptor: soluble LDL receptor (SEQ ID NO:1)
[1]; Daudi cells, pretreatment 30 minutes at 37° C., HCV 2 hours at 37° C.
  Inhibition of endocytosis of HCV: completely inhibits

## CC(C)c1c(C(=O)Nc2ccccc2)c(-c2ccccc2)c(-c2ccc(F)cc2)n1CC[C@@H](O)C[C@@H](O)CC(=O)O [atorvastatin]
[2]
  Modulation of LDL receptor (fluorescence staining): upregulation of the LDL receptor
[3]; Tg mouse pretreated with 0.5 mg, control mouse 43
  Quantitative HCV of the liver: 163 HCV gE per mg liver

## heparin sulfate
[1]; 25 units/ml
  Inhibition of endocytosis of HCV: inhibited

## LDL: low density lipoprotein, d=1.019-1.063 g/ml, from normal sera or purchased from Cortex
[1]
  Restoration of endocytosis of "free" HCV: restoration of endocytosis
[1]; HepG2 or B cells (G4 and E11), 25-100 μg/ml
  Inhibition of endocytosis of HCV (competitive): completely inhibited
[1]; [5]
  Endocytosis of 1 × 10^6 gE HCV from each fraction % cell positive: 75%
  Endocytosis of 1 × 10^6 gE HCV from each fraction intensity of staining: +
[4]; density gradient fractions of HCV serum
  Endocytosis of 5 μg DiI-labeled fraction mean fluorescence (log scale): 9.98
[4]; upregulated G4 cells, 5 μg DiI-LDL, excess unlabeled LDL
  Inhibition of uptake of DiI-LDL: completely inhibited

## 5^th repeat peptide: 39 amino acid 5th repeat of the ligand binding domain of the LDL receptor, amino acids 193-231 of SEQ ID NO:1
[3]; hLDLR Tg mouse, 1 mg one hour prior to intraperitoneal HCV (5.0×10^6 gE)
  Inhibition of endocytosis of HCV by hepatocytes: completely inhibits

## O=C(O)CN(CCOCCOCCN(CC(=O)O)CC(=O)O)CC(=O)O [EGTA, ethylene glycol bis(β-aminoethyl ether)-N,N,N′,N′-tetraacetic acid]
[1]
  Inhibition of endocytosis of HCV: inhibited

## DiI-LDL: LDL labeled with 1,1′-dioctadecyl-3,3,3′,3′-tetramethylindocarbocyanine iodine (DiI)
[4]; G4 cells, lipoprotein deficient medium (upregulated LDL receptor)
  Mean fluorescence: 16 ± 7
[4]; G4 cells, routine culture medium (RPMI with 10% fetal bovine serum)
  Mean fluorescence: 4 ± 2.0
[4]; HepG2 cells, routine culture medium
  Mean fluorescence: 16 ± 5
